Values quoted from earlier work as cited in US20140080794A1, “Methods and Compositions for the Treatment of Estrogen-Dependent Hyperproliferative Uterine Disorders” (Vivus, Inc., priority 2008, published 2014).

Test system: endometriosis patients

## CC(C)(C#N)c1cc(Cn2cncn2)cc(C(C)(C)C#N)c1 [anastrozole, α, α, α′, α′-tetramethyl-5-(1H-1,2,4-triazol-1-ylmethyl)-1,3-benzene-diacetonitrile]
1 mg anastrozole and an oral contraceptive (20 μg ethinyl estradiol/1 mg levonorgestrel) per day for six months
  symptoms of endometriosis: symptom improvement
1 mg anastrozole and an oral contraceptive (20 μg ethinyl estradiol/1 mg levonorgestrel) per day, all patients, by the end of the treatment period
  systemic estradiol levels: significantly suppressed
